Legend:
[1] = Tlast in female C57BL/6J mouse lung at 30 mg/kg, po measured after 24 hrs by UPLC-MS/MS analysis; type: ADME, organism-based; conditions: in vivo
[2] = Toxicity in cynomolgus monkey assessed as fasciculation at 210 mg/kg/day, po bid measured after 4 days; type: organism-based, Macaca fascicularis; conditions: in vivo, 96 h, time 4 day
[3] = Unbound Cmax in female C57BL/6J mouse lung at 30 mg/kg, po measured after 24 hrs by UPLC-MS/MS analysis; type: ADME, organism-based; conditions: in vivo
[4] = Toxicity in cynomolgus monkey assessed as appearance of sinusoidal leukocytosis in liver at 50 mg/kg, po bid by microscopic analysis; type: organism-based, Macaca fascicularis; conditions: in vivo
[5] = Tlast in female C57BL/6J mouse plasma at 30 mg/kg, po measured after 24 hrs by UPLC-MS/MS analysis; type: ADME, organism-based; conditions: in vivo
[6] = Toxicity in cynomolgus monkey assessed as drug tolerance at 12.5 to 100 mg/kg/day, po bid measured after 4 days; type: organism-based, Macaca fascicularis; conditions: in vivo, 96 h, dose 12.5-100 mg/kg/day, time 4 day
[7] = Metabolic stability in female C57BL/6J mouse liver microsomes assessed as intrinsic clearance measured per mg of protein at 0.5 uM measured upto 45 mins in presence of NADPH regenerating system by HPLC-MS/MS analysis; type: ADME, Microsome; conditions: read-out: CLH
[8] = Unbound Cmax in female C57BL/6J mouse plasma at 30 mg/kg, po measured after 24 hrs by UPLC-MS/MS analysis; type: ADME, organism-based; conditions: in vivo
[9] = Lipophilicity, logD of compound at pH 7.4 by chromatographic hydrophobicity index method; type: physicochemical; conditions: buffer
[10] = target: T1, ATP-binding cassette sub-family C member 4 (Homo sapiens, UniProt O15439); assay: Inhibition of MRP4 (unknown origin) in presence of ATP by membrane vesicular transport assay; type: cell membranes, Membrane vesicle
T1 sequence (O15439 whole entry): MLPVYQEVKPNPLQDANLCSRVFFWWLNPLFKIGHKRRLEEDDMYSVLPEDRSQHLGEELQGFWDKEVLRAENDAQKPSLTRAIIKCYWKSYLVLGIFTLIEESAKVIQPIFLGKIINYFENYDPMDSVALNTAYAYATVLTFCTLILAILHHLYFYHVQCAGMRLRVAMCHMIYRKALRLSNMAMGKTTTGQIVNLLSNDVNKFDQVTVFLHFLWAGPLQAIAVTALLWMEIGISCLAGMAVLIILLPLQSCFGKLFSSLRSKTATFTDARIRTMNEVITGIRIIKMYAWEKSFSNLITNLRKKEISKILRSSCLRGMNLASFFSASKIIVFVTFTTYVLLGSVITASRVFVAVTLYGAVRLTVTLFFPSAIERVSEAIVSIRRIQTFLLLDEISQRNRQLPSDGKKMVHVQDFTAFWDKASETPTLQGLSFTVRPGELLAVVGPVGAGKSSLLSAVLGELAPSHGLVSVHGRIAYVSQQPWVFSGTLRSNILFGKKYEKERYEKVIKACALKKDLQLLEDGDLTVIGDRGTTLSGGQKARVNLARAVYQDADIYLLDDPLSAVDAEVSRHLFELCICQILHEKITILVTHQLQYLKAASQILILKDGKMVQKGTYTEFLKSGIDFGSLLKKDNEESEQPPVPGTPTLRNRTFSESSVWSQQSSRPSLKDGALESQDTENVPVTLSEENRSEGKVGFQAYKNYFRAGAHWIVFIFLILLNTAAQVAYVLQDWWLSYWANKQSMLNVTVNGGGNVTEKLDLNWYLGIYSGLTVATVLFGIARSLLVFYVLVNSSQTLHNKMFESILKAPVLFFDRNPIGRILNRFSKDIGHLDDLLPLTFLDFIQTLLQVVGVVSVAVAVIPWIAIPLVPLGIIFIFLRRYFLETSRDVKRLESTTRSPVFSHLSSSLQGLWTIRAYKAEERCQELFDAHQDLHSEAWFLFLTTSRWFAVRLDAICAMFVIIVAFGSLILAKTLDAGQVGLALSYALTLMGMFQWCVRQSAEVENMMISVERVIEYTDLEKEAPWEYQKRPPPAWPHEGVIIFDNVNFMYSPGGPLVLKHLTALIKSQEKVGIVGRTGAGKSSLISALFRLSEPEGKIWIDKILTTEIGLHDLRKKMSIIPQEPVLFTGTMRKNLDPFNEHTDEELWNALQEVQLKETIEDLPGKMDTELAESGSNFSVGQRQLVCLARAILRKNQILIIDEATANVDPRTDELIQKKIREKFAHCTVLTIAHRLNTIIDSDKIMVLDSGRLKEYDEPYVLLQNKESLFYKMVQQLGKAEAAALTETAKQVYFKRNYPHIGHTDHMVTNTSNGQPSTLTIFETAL

[11] = target: T2, Solute carrier organic anion transporter family member 1B1 (Homo sapiens, UniProt Q9Y6L6); assay: Inhibition of human OATP1B1 in HEK293 cells; type: cell-based
T2 sequence (Q9Y6L6 whole entry): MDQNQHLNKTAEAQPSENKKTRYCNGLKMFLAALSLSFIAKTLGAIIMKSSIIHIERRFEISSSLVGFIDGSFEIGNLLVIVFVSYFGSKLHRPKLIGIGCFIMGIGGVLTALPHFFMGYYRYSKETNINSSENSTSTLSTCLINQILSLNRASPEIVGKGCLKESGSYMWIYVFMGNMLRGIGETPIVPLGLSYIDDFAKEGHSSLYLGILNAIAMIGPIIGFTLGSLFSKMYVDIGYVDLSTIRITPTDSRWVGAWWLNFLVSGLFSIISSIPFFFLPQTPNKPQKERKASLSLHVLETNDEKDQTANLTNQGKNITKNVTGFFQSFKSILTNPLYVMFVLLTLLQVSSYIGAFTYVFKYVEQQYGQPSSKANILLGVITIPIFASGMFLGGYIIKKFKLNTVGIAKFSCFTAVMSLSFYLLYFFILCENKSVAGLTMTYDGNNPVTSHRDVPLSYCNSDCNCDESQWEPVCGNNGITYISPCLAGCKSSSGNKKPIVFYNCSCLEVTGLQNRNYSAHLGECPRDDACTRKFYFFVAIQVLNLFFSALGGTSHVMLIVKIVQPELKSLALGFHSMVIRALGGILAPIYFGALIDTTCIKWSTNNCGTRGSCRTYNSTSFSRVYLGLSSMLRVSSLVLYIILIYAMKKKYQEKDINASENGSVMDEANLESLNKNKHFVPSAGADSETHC

SMILES: Cc1nc(-c2onc(C)c2NC(=O)O[C@H](C)c2ccccc2Cl)ccc1NC(=O)[C@H]1CCCC[C@@H]1C(=O)O
- Tlast [1]: 24 h
- Activity [2]: Toxic
- fCmax [3]: 1553 ng/mL
- Activity [4]: Toxic
- Tlast [5]: 24 h
- Activity [6]: Non-toxic
- microsomal CLint at 0.5 µM [7]: 4 µL/min/mg
- fCmax [8]: 1479 ng/mL
- chromatographic logD [9]: 1.76
- IC50 [10]: 63.1 µM
- IC50 [11]: 5.01 µM

— ChEMBL document CHEMBL6153155, “Novel Cyclohexyl Amido Acid Antagonists of Lysophosphatidic Acid Type 1 Receptor for the Treatment of Pulmonary Fibrosis” (ACS Med Chem Lett, 2025)
